{"source": "patent US20190316085A1", "about": "“Methods Of T-Lymphocyte Expansion” (Cambridge Enterprise Limited, priority 2015, published 2019)", "format_in_all_cases": "cell-based, mouse", "key": {"CD8^+ T-lymphocytes [1]": {"tested_on": "CD8^+ T-lymphocytes", "assay": "Glucose, lactate and VEGF measurements in media", "settings": "0.5 mM, 16 hours", "procedure": "Each dot represent one donor mouse n≥16 mice. P-values are shown for each panel; one-way ANOVA for multiple comparisons (A, B and C). n.s.=non significant.\nCD8^+ T-cells were expanded for 4 days and then treated for 16 h with S-2HG octyl ester or R-2HG octyl ester. Glucose and lactate levels in culture medium were measured with a Dade-Behring Dimension RXL analyser. Changes in metabolite concentrations relative to fresh media were normalized to viable cell counts. VEGF, IL-2 and IFN-γ protein levels in media were determined using the following kits from MesoScale Discovery: K150BMC-2 for VEGF, K15048D-2 for IFN-γ and K152QQD-2 for IL-2. Values were normalized to viable cell counts."}, "PDH-E1α": {"tested_on": "PDH-E1α", "assay": "Immunoblot for phospho-PDH E1α (S232) in treated CD8+ T-lymphocytes", "settings": "16 hours treatment", "procedure": "FIG. 6A showns immunoblot analysis for HIF-1α, HDAC1, phospho-PDH E1α (S232) and total PDH-E1α in response to increasing concentrations of S-2HG-octyl ester or R-2HG-octyl ester, or 10 mM of the free acid forms of S-2HG or R-2HG for 16 hours. Cells were activated for 48 h with αCD3+αCD28 antibodies and then expanded for a further 4 days in the presence of IL-2 followed by treatment with the indicated concentration of S-2HG-octyl ester or R-2HG octyl ester, or 10 mM of the free acid forms of S-2HG or R-2HG for 16 hours. The arrow indicates HIF-1α protein.\n(§1) Nuclear and cytosolic fractions were prepared from cells with the NE-PER kit (Thermo Scientific) and separated by SDS-PAGE. Proteins were transferred to PVDF membranes and then blocked in 5% milk prepared in phosphate-buffered saline (PBS) plus 0.05% Tween 20. Membranes were then incubated with primary antibodies overnight at 4° C. and horseradish peroxidase (HRP)-conjugated secondary antibodies for 1 h the next day. The following primary antibodies were used at a dilution of 1:1000: HIF1α (Novus), HIF2α (Novus), PDH-E1α (Abcam), PDH-E1α pS232 (Calbiochem), LaminB1 (Abcam), HDAC1 (Abcam), β-tubulin (Abcam), 4E-BP1 (Cell Signalling), phospho-4E-BP1 (S65) (Cell Signalling), phospho-4E-BP1 (T37/T46) (Cell Signalling) S6K (Cell Signalling), phopho-S6K (T389) (Cell Signalling), phopho-S6K (S371) (Cell Signalling)."}, "CD8^+ T-lymphocytes [2]": {"tested_on": "CD8^+ T-lymphocytes", "assay": "Flow cytometry of CD44 and CD62L surface expression", "settings": "for CD62L effect when treating CD62L^low CD44^high effector cells: 0.5 mM added after 7 days of vehicle; for reversibility of the CD62L effect upon withdrawal of treatment: 0.5 mM for 7 days then washout, followed 9 more days; for formation of a CD62L^high CD44^high population / effect on CD62L when HIF-1α is absent / CD62L downregulation in HIF-2a null cells: 0.5 mM; for formation of a CD62L^high CD44^high population: with IL-2, antigen specific (OT-I) and polyclonal CD8+ T-lymphocytes; for effect on CD62L when HIF-1α is absent: Hif1α^−/− CD8+ T-lymphocytes; for CD62L downregulation in HIF-2a null cells: Hif2α^−/− CD8+ T-lymphocytes, versus wild type controls", "description": "Data are representative of n=4 individual mice.\nData are representative of 3 mice per genotype.\nData are representative of 2 mice per genotype.\nData are representative of n=3 individual mice.\nCells were stained and acquired on a Fortessa (BD Biosciences). […] For staining of nuclear-located marker Eomes, the Transcription Factor Staining Buffer Set (eBioscience) was used, according to the manufacturer's instructions. For staining of intracellular cytokines, OT-I cells were re-stimulated with […] peptide for 4 h with GolgiStop solution (BD). For ^1H-NMR experiments, CD8^+ T-lymphocytes were sorted from total splenocytes by immunostaining with anti-mouse CD8-AF647 (Biolegend) on a MoFlo (Beckman Coulter). Cells were then activated and cultured as described above."}, "mTOR": {"tested_on": "mTOR", "assay": "mTOR signalling immunoblot", "settings": "100 μM to 500 μM", "procedure": "as §1"}}, "data": [{"smiles": "CCCCCCCCOC(=O)[C@H](O)CCC(=O)O", "note": "[R-2HG-octyl ester]", "values": [{"measurement": "VEGF production", "setting": "CD8^+ T-lymphocytes [1]", "value": "elevated"}, {"measurement": "glucose uptake", "setting": "CD8^+ T-lymphocytes [1]", "value": "elevated"}, {"measurement": "lactate secretion", "setting": "CD8^+ T-lymphocytes [1]", "value": "elevated"}, {"measurement": "phosphorylation of PDH-E1a", "setting": "PDH-E1α", "value": "increased"}, {"measurement": "CD62L effect when treating CD62L^low CD44^high effector cells", "setting": "CD8^+ T-lymphocytes [2]", "value": "does not occur"}, {"measurement": "reversibility of the CD62L effect upon withdrawal of treatment", "setting": "CD8^+ T-lymphocytes [2]", "value": "reversible"}, {"measurement": "formation of a CD62L^high CD44^high population", "setting": "CD8^+ T-lymphocytes [2]", "value": "promotes the formation"}, {"measurement": "effect on CD62L when HIF-1α is absent", "setting": "CD8^+ T-lymphocytes [2]", "value": "masks the effects"}, {"measurement": "CD62L downregulation in HIF-2a null cells", "setting": "CD8^+ T-lymphocytes [2]", "value": "inhibits CD62L downregulation"}, {"measurement": "mTOR signalling", "setting": "mTOR", "value": "does not inhibit"}]}, {"smiles": "CCCCCCCCOC(=O)[C@@H](O)CCC(=O)O", "note": "[S-2HG-octyl ester, S-2HG octyl ester]", "values": [{"measurement": "VEGF production", "setting": "CD8^+ T-lymphocytes [1]", "value": "elevated"}, {"measurement": "glucose uptake", "setting": "CD8^+ T-lymphocytes [1]", "value": "elevated"}, {"measurement": "lactate secretion", "setting": "CD8^+ T-lymphocytes [1]", "value": "elevated"}, {"measurement": "phosphorylation of PDH-E1a", "setting": "PDH-E1α", "value": "increased"}, {"measurement": "CD62L effect when treating CD62L^low CD44^high effector cells", "setting": "CD8^+ T-lymphocytes [2]", "value": "does not occur"}, {"measurement": "reversibility of the CD62L effect upon withdrawal of treatment", "setting": "CD8^+ T-lymphocytes [2]", "value": "reversible"}, {"measurement": "formation of a CD62L^high CD44^high population", "setting": "CD8^+ T-lymphocytes [2]", "value": "promotes the formation"}, {"measurement": "effect on CD62L when HIF-1α is absent", "setting": "CD8^+ T-lymphocytes [2]", "value": "masks the effects"}, {"measurement": "CD62L downregulation in HIF-2a null cells", "setting": "CD8^+ T-lymphocytes [2]", "value": "inhibits CD62L downregulation"}, {"measurement": "mTOR signalling", "setting": "mTOR", "value": "does not inhibit"}]}]}
